Results taken from patent publication US20030234356A1, “Method and apparatus for the detection of noncovalent interactions by mass spectrometry-based diffusion measurements” (priority 2002, published 2003).
Entries after “also recorded” stand apart in the source; their conditions may differ.

Experiments:
lysozyme = target: T1, lysozyme (Gallus gallus, UniProt P00698); assay: ESI-MS Taylor dispersion screen of a mixture of six sugars for noncovalent binding to lysozyme; details: six sugars monitored simultaneously
T1 construct: purchased Sigma (St. Louis, Mo.)
T1 sequence (P00698 19-147): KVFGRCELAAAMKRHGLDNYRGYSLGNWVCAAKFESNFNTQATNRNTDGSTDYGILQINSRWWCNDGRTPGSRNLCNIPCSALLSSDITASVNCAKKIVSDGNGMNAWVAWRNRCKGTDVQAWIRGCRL
Protocol: (§1) Based on the theoretical considerations described above, we will now describe details of an apparatus that allows the measurement of dispersion profiles by ESI-MS or APCI-MS. A schematic diagram of the apparatus is shown generally at 10 in FIG. 2. The measurements described below were carried out by using a 3.013 m long Teflon laminar flow tube (Upchurch, Oak Harbor, Wash.) shown as LFT or 12 in FIG. 2. The inner diameter (i.d.) of this LFT was determined gravimetrically to be 258.2 μm. In order to measure a diffusion coefficient, a sharp initial boundary must be created between the carrier solution and the following analyte solution at the entrance of the flow tube (Equation 3). This was accomplished by using a valve mechanism shown in FIG. 2 as a “sliding block mechanism (SBM)” 14 developed by the inventors. The laminar flow tube (LFT) 12 is inserted into a Teflon block machined to accommodate a PEEK connector and ferrule (Upchurch, Oak Harbor, Wash.) so that the flow tube 12 extends through to the end of the block. Initially, the entrance to the flow tube 12 is aligned with an opening in a steel block into which a piece of PEEK tubing 16 (508 μm ID, length ≈0.5 m) is fitted, using another PEEK connector and ferrule. This second piece of tubing 16 is used as the inlet tube, forming a leak-proof connection between the inlet tube and the flow tube at the boundary between the steel and Teflon blocks.
An analyte reservoir 18 (shown as a syringe in FIG. 2 which also acts as a pump) connected to the inlet tube 16 can be used to fill the inlet tube 16 with analyte solution, and to pump this analyte solution through the LFT 12. Initially, however, a carrier solution reservoir (not shown) is connected to tube 16 for filling the laminar flow tube 12 with carrier solution. The analyte solution and carrier solution reservoirs are never connected to the laminar flow tube 16 at the same time. Subsequently, the Teflon block containing the flow tube is moved sideways, such that the two tubes 12 and 16 are no longer aligned and the entrance to the flow tube 12 is closed off by the steel block. The inlet tube 16 can now be filled with analyte solution from pump 18 (syringe S1) without disturbing the carrier solution in the flow tube 12. Then the Teflon block is returned to its original position, aligning the two tubes (12 and 16) and creating a sharp boundary between the analyte solution in the inlet tube and the carrier solution in the LFT 12. The i.d. of the inlet tube 16 was chosen to be larger than that of the flow tube 12 to ensure that the boundary between the two solutions would cover the entire cross-sectional area of the flow tube 12, even if the sliding block were slightly misaligned. […]

apo-myoglobin = target: T2, apo-myoglobin (Equus caballus, UniProt P68082); assay: ESI-MS Taylor dispersion (diffusion) measurement of noncovalent heme-protein binding in myoglobin; details: for noncovalent binding of heme to the protein: 24±1° C
T2 construct: purchased Sigma (St. Louis, Mo.)
T2 sequence (P68082 2-154 limits assumed): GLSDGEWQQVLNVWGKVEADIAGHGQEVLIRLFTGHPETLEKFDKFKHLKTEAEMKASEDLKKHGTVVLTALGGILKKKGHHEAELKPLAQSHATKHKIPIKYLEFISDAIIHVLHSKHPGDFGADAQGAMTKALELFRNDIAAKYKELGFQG
Protocol: as §1
An analyte reservoir 18 (shown as a syringe in FIG. 2 which also acts as a pump) connected to the inlet tube 16 can be used to fill the inlet tube 16 with analyte solution, and to pump this analyte solution through the LFT 12. Initially, however, a carrier solution reservoir (not shown) is connected to tube 16 for filling the laminar flow tube 12 with carrier solution. The analyte solution and carrier solution reservoirs are never connected to the laminar flow tube 16 at the same time. Subsequently, the Teflon block containing the flow tube is moved sideways, such that the two tubes 12 and 16 are no longer aligned and the entrance to the flow tube 12 is closed off by the steel block. The inlet tube 16 can now be filled with analyte solution from pump 18 (syringe S1) without disturbing the carrier solution in the flow tube 12. Then the Teflon block is returned to its original position, aligning the two tubes (12 and 16) and creating a sharp boundary between the analyte solution in the inlet tube and the carrier solution in the LFT 12. The i.d. of the inlet tube 16 was chosen to be larger than that of the flow tube 12 to ensure that the boundary between the two solutions would cover the entire cross-sectional area of the flow tube 12, even if the sliding block were slightly misaligned. The use of a commercially available HPLC injection valve with a sample loop of suitable size may serve the same purpose as the described sliding block mechanism.
For the four examples given below, the analyte solution from syringe S1 is pumped through the laminar flow tube by using a Harvard syringe pump (South Nattick, Mass.). The outlet of the flow tube 12 is connected to two fused silica capillaries 26 and 28 (i.d. 100 μm, o.d. 165 μm, Polymicro Technologies, Phoenix, Ariz.) at a mixer 30 located at the end of tube 12. The first of these capillaries 26 has a length of 5 cm and is connected to the ESI source of the mass spectrometer 22. For studies on myoglobin, the second capillary 28 was used to supplement the analyte near the end of the laminar flow tube 12 with a methanol/acetic acid (90:10 v/v) mixture from syringe S2 just before it reached the ESI ion source. This “make-up” solvent was delivered at a flow rate of 5 μL/min, for a total flow rate of 10 μL/min at the ion source. The residence time of the analyte solution in the final 5 cm capillary was only about 2 s and can therefore be neglected for the analysis (the value of l/{overscore (v)} is 1929 s). […]

[1] = absence vs presence of lysozyme
[2] = denaturing conditions (50% acetonitrile, pH 10)
[3] = native-like solvent conditions (no organic cosolvents, pH 10)
[4] = semi-denaturing conditions (30% acetonitrile, pH 10)

Row | change in dispersion profile when the protein was added (lysozyme; [1]) | fitted diffusion coefficient of heme compared with that of the protein in myoglobin solution (apo-myoglobin; [2]) | noncovalent binding of heme to the protein (apo-myoglobin; [2]) | fitted diffusion coefficient of heme compared with that of the protein in myoglobin solution (apo-myoglobin; [3]) | noncovalent binding of heme to the protein (apo-myoglobin; [3]) | fitted diffusion coefficient of heme compared with that of the protein in myoglobin solution (apo-myoglobin; [4]) | noncovalent binding of heme to the protein (apo-myoglobin; [4]) | noncovalent binding to lysozyme (lysozyme; without and with lysozyme) | SMILES | change of apparent diffusion coefficient upon addition of the protein (lysozyme; absence vs presence of lysozyme, average of about ten measurements)
1 | virtually no change |  |  |  |  |  |  |  | C[C@H](O)[C@H](O)[C@@H](O)[C@@H](O)C=O [rhamnose] | 
2 |  | much larger diffusion coefficient | absent or extremely weak | agree closely with each other | noncovalently bound to the protein | almost identical | still bound to each other |  | C=CC1=C(C)c2cc3[n-]c(cc4[n-]c(cc5nc(cc1n2)C(C)=C5C=C)c(C)c4CCC(=O)O)c(CCC(=O)O)c3C.[Fe+2] [heme] | 
3 | distinct change |  |  |  |  |  |  | binds noncovalently to lysozyme | CC(=O)N[C@H]1[C@H](O[C@H]2[C@H](O)[C@@H](NC(C)=O)C(O)O[C@@H]2CO)O[C@H](CO)[C@@H](O[C@@H]2O[C@H](CO)[C@@H](O)[C@H](O)[C@H]2NC(C)=O)[C@@H]1O (stereo partly shown) [chitotriose] | dramatic reduction; also recorded: significant change
